Here are results for five compounds from article PMC7305236, “The atypical chemokine receptor ACKR3/CXCR7 is a broad-spectrum scavenger for opioid peptides” (Nature Communications, 2020).

Read-outs that look alike come from different tables or passages of the source.

Holding throughout (design): dose or concentration left out as unconfirmed
For one assay, the target named is T1, CXCR4 (Homo sapiens, UniProt P61073).
T1 construct: expressed in transfected cells; host or cells: U87, transient cotransfection of pNBe vectors
T1 sequence (P61073 whole entry): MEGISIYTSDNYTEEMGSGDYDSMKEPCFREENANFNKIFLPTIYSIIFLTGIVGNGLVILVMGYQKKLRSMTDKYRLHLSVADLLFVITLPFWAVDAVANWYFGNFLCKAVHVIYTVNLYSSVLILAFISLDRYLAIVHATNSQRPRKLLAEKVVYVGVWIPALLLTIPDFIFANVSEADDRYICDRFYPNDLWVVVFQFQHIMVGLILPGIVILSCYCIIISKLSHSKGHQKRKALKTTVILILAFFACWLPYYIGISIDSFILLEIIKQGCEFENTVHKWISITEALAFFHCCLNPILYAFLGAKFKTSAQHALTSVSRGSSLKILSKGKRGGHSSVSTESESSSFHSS
Briefly: cell-based. The note with it: Figure S2a, read-out: CXCR4 activity, ctrl+ = 100.

Another assay addresses T2, CXCR3A (Homo sapiens, UniProt P49682).
T2 construct: expressed in transfected cells; host or cells: U87 cells
T2 sequence (P49682 1-368): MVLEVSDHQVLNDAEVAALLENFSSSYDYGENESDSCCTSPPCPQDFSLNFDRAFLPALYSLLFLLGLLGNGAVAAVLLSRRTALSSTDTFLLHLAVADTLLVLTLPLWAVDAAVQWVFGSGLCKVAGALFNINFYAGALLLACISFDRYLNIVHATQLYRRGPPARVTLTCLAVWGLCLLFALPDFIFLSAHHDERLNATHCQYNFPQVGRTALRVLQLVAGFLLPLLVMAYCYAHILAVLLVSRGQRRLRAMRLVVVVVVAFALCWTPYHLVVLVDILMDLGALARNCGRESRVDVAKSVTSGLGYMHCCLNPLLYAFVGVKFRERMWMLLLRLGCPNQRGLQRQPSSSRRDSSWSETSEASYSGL
The assay is described as follows: Figure S2a opioid peptide screen on chemokine receptors. Type of assay: cell-based.

A further assay concerns the target T3, CXCR6 (Homo sapiens, UniProt O00574).
T3 construct: expressed in transfected cells
The assay is described as above. In kind it is cell-based.

A further assay addresses T4, ACKR4 (Homo sapiens, UniProt Q9NPB9).
T4 sequence (Q9NPB9 1-350): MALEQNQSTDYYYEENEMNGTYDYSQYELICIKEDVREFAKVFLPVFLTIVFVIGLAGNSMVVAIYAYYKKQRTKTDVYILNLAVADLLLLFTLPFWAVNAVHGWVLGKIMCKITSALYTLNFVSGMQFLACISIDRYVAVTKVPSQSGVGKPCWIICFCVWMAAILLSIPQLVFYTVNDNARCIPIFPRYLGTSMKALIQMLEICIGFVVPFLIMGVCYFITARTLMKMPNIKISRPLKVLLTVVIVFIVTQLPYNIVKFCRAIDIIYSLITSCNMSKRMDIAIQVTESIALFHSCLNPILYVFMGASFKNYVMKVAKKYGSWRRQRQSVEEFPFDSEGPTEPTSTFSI
The assay is described as above. The note with it: read-out: ACKR4 activity, ctrl+ = 100, Figure S2a.

The next assay deals with T5, XCR1 (Homo sapiens, UniProt P46094).
T5 construct: expressed in transfected cells
T5 sequence (P46094 1-333): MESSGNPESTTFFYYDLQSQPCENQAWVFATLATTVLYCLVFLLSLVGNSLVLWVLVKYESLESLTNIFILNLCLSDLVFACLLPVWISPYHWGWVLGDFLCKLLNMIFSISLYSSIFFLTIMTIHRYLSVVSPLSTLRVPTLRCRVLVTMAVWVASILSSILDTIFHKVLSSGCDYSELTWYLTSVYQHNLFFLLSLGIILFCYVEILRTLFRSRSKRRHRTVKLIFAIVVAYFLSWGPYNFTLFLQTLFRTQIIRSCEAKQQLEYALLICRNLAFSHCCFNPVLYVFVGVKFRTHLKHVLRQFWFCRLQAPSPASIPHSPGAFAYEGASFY
The description is as above. Type of assay: cell-based.

A further assay deals with T6, CCR4 (Homo sapiens, UniProt P51679).
T6 construct: expressed in transfected cells
T6 sequence (P51679 1-360): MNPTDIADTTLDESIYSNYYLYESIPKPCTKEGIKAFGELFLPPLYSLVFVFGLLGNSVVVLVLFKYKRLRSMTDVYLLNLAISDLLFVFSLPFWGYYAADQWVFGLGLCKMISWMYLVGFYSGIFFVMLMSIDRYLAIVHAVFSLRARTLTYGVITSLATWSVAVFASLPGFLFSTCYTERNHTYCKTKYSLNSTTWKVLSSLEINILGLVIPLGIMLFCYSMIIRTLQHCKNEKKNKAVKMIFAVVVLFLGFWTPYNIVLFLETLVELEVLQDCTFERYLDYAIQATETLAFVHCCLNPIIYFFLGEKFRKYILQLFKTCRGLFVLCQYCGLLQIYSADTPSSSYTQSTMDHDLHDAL
The description is as above. Type of assay: cell-based.

Another assay has as its target T7, CCR3 (Homo sapiens, UniProt P51677).
T7 sequence (P51677 1-355): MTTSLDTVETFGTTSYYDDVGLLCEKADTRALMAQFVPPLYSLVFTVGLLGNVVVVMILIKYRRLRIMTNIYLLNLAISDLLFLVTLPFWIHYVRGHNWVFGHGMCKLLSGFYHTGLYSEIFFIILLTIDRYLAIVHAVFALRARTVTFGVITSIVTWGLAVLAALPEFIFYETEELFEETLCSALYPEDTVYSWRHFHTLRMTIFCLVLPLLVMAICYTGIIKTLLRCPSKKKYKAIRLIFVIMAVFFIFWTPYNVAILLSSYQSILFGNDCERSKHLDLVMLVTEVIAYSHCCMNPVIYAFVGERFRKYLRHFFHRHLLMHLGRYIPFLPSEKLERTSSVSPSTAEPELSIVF
The assay is described as above. As to conditions: read-out: CCR3 activity, ctrl+ = 100, Figure S2a.

The mark [1] stands for this setting: replicate 1, read-out: CXCR3A activity, ctrl+ = 100.
Setting [2] is: replicate 2, read-out: CXCR3A activity, ctrl+ = 100.
[3] abbreviates: replicate 1, read-out: CXCR6 activity, ctrl+ = 100.
[4] abbreviates: replicate 2, read-out: CXCR6 activity, ctrl+ = 100.
[5] abbreviates: replicate 1, read-out: XCR1 activity, ctrl+ = 100.
[6] abbreviates: replicate 2, read-out: XCR1 activity, ctrl+ = 100.
Where [7] appears, read: replicate 1, read-out: CCR4 activity, ctrl+ = 100.
[8] abbreviates: replicate 2, read-out: CCR4 activity, ctrl+ = 100.

T3 sequence (O00574 whole entry): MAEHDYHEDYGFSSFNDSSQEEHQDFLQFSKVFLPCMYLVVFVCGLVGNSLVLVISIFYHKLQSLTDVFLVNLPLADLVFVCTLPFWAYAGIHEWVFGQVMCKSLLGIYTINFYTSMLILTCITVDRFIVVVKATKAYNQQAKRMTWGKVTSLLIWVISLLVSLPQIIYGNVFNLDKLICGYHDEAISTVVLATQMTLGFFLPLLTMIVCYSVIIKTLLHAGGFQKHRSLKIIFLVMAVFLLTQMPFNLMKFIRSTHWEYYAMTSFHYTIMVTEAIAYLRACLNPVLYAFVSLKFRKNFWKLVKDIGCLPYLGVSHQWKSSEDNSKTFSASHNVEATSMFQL

As for `NC(=O)[C@H](Cc1ccccc1)NC(=O)[C@H](Cc1c[nH]c2ccccc12)NC(=O)[C@@H]1CCCN1C(=O)[C@@H](N)Cc1ccc(O)cc1` [Endomorphin-1], the activation on CXCR4 (replicate 1) was 36.3%; on CXCR4 (replicate 2), 16.8%; at CXCR3A (setting [1]), 3.34%; on CXCR3A (setting [2]) it was -3.63%; on CXCR6 (setting [3]), -0.315%; on CXCR6 (setting [4]), 1.12%. In addition, the activation at ACKR4 (replicate 1) is 3.4%; on ACKR4 (replicate 2), 1.77%; at XCR1 (setting [5]), 4.23%; on XCR1 (setting [6]) it was 6.11%; on CCR4 (setting [7]), 0.589%; at CCR4 (setting [8]), -1.89%. For the same compound, the activation worked out at 18.4% on CCR3 (replicate 1) and 4.97% at CCR3 (replicate 2).

On to `CC[C@H](C)[C@H](NC(=O)[C@H](CCCNC(=N)N)NC(=O)[C@H](CCCNC(=N)N)NC(=O)[C@H](CC(C)C)NC(=O)[C@H](Cc1ccccc1)NC(=O)CNC(=O)CN)C(=O)N[C@@H](CCCNC(=N)N)C(=O)N1CCC[C@H]1C(=O)N[C@@H](CCCCN)C(=O)N[C@@H](CC(C)C)C(=O)N[C@@H](CCCCN)C(=O)N[C@@H](Cc1c[nH]c2ccccc12)C(=O)N[C@@H](CC(=O)O)C(=O)N[C@@H](CC(N)=O)C(=O)N[C@@H](CCC(N)=O)C(=O)O` [Dynorphin 2-17], for which the activation at CXCR4 (replicate 1) was -9.77%; on CXCR4 (replicate 2), -26.7%; on CXCR3A (setting [1]), -4.16%; on CXCR3A (setting [2]), -10.2%; at CXCR6 (setting [3]), -0.523%; on CXCR6 (setting [4]), -1.13%. Moreover, the activation was -1.91% at ACKR4 (replicate 1); -4.71% on ACKR4 (replicate 2); 3.87% on XCR1 (setting [5]); -3.46% on XCR1 (setting [6]); -4.06% at CCR4 (setting [7]); -1.12% on CCR4 (setting [8]). Besides, the activation at CCR3 (replicate 1) is 12.7%; on CCR3 (replicate 2), -19.1%.

With `CC(C)C[C@H](NC(=O)[C@H](Cc1ccccc1)NC(=O)CNC(=O)CNC(=O)[C@@H](N)Cc1ccc(O)cc1)C(=O)N[C@@H](CCCN=C(N)N)C(=O)N[C@@H](CCCN=C(N)N)C(=O)N[C@@H](CCC(N)=O)C(=O)N[C@@H](Cc1ccccc1)C(=O)N[C@@H](CCCCN)C(=O)N[C@H](C(=O)N[C@H](C(=O)N[C@H](C(=O)O)[C@@H](C)O)C(C)C)C(C)C` [Dynorphin B], the activation was -12.2% on CXCR4 (replicate 1); 7.15% at CXCR4 (replicate 2); -6.95% at CXCR4 (replicate 3); -2.8% on CXCR3A (setting [1]); -4.87% on CXCR3A (setting [2]); -1.97% on CXCR3A (replicate 3, read-out: CXCR3A activity, ctrl+ = 100). For the same compound, the activation is -1.05% at CXCR6 (setting [3]); -1.2% on CXCR6 (setting [4]); 0.0809% on CXCR6 (replicate 3, read-out: CXCR6 activity, ctrl+ = 100); -5.6% on ACKR4 (replicate 1); -0.628% at ACKR4 (replicate 2); 0.166% at ACKR4 (replicate 3). Moreover, the activation on XCR1 (setting [5]) was -1.79%; on XCR1 (setting [6]), 0.791%; on XCR1 (replicate 3, read-out: XCR1 activity, ctrl+ = 100), 9.32%; at CCR4 (setting [7]), -1.26%; at CCR4 (setting [8]), -2.57%; on CCR4 (replicate 3, read-out: CCR4 activity, ctrl+ = 100), 5.93%. Further, the activation on CCR3 (replicate 1) is 22.6%; at CCR3 (replicate 2) it was -7.56%.

With `CC(C)C[C@H](NC(=O)[C@H](CCCCN)NC(=O)[C@H](CCCN=C(N)N)NC(=O)[C@H](C)NC(=O)[C@H](CO)NC(=O)[C@H](CCCCN)NC(=O)[C@H](CCCN=C(N)N)NC(=O)[C@H](C)NC(=O)CNC(=O)[C@@H](NC(=O)[C@H](Cc1ccccc1)NC(=O)CNC(=O)CNC(=O)[C@@H](N)Cc1ccccc1)[C@@H](C)O)C(=O)N[C@@H](C)C(=O)N[C@@H](CC(N)=O)C(=O)N[C@@H](CCC(N)=O)C(=O)O` [Nociceptin], the activation on CXCR4 (replicate 1) was 3.24%; at CXCR4 (replicate 2), -19.8%; at CXCR3A (setting [1]), -2.21%; on CXCR3A (setting [2]), -5.51%; at CXCR6 (setting [3]), -0.607%; on CXCR6 (setting [4]) it was -0.718%. Also, the activation at ACKR4 (replicate 1) is -1%; on ACKR4 (replicate 2) it was -5.23%; at XCR1 (setting [5]), 1.08%; on XCR1 (setting [6]) it was -2.39%; at CCR4 (setting [7]), -2.47%; on CCR4 (setting [8]) it was -0.825%. For the same compound, the activation was 8.85% at CCR3 (replicate 1) and -14.3% on CCR3 (replicate 2).

As to `CC[C@H](C)[C@H](NC(=O)[C@H](CCCNC(=N)N)NC(=O)[C@H](CCCNC(=N)N)NC(=O)[C@H](CC(C)C)NC(=O)[C@H](Cc1ccccc1)NC(=O)CNC(=O)CNC(=O)[C@@H](N)Cc1ccc(O)cc1)C(=O)N[C@@H](CCCNC(=N)N)C(=O)N1CCC[C@H]1C(=O)N[C@@H](CCCCN)C(=O)N[C@@H](CC(C)C)C(=O)N[C@@H](CCCCN)C(=O)O` [Dynorphin 1-13], the activation was 13.2% at CXCR4 (replicate 1); -40.8% at CXCR4 (replicate 2); -2.15% at CXCR3A (setting [1]); -8.16% at CXCR3A (setting [2]); 0.0731% on CXCR6 (setting [3]); -1.13% at CXCR6 (setting [4]). Further, the activation is -2% at ACKR4 (replicate 1); -4.85% at ACKR4 (replicate 2); -1.76% at XCR1 (setting [5]); -0.309% on XCR1 (setting [6]); 0.25% at CCR4 (setting [7]); -3.89% at CCR4 (setting [8]). Moreover, the activation on CCR3 (replicate 1) is 5.05%; at CCR3 (replicate 2), -11.6%.
